In the supplement of paper PMC10307832:

Key:
Test in all cases: relative viability (nuclei count vs DMSO), 5 days (fraction); higher = more cells survive
[1] = compound: CC1=CC=C(C=C1)C(=O)CN2C3=C(CCCC3)SC2=N [Pifithrin_alpha] + COc1cccc2cc(-c3nc([C@H]4CC[C@H](C(=O)O)CC4)n4ncnc(N)c34)[nH]c12 [OSI-027] (partner 0.5 µM)
How it was run: (§1)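 Relative viability equals treated-well nuclei counts divided by vehicle-well nuclei counts. Counts came from 4× images of lung cancer cell lines grown in 1536-well plates for 5 days after pin-tool dosing on the day after seeding. Dosing used one drug alone or a fixed anchor-drug dose plus five library-drug doses (not always all listed) in √10 steps, and values are medians of duplicate plates.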

Axitinib + Navitoclax = compound: CNC(=O)c1ccccc1Sc1ccc2c(/C=C/c3ccccn3)n[nH]c2c1 [Axitinib] + CC1(C)CCC(c2ccc(Cl)cc2)=C(CN2CCN(c3ccc(C(=O)NS(=O)(=O)c4ccc(N[C@H](CCN5CCOCC5)CSc5ccccc5)c(S(=O)(=O)C(F)(F)F)c4)cc3)CC2)C1 [Navitoclax] (partner 0.5 µM)
How it was run: as §1

[2] = compound: CC1=CC=C(C=C1)C(=O)CN2C3=C(CCCC3)SC2=N [Pifithrin_alpha] + Nc1ncn([C@H]2C[C@H](O)[C@@H](CO)O2)c(=O)n1 [Decitabine] (partner 2 µM)
How it was run: as §1

Axitinib + AZD7762 = compound: CNC(=O)c1ccccc1Sc1ccc2c(/C=C/c3ccccn3)n[nH]c2c1 [Axitinib] + NC(=O)Nc1cc(-c2cccc(F)c2)sc1C(=O)N[C@H]1CCCNC1 [AZD7762] (partner 0.2 µM)
How it was run: as §1

Cell Line	relative viability ([1]; first compound 1 µM)	relative viability ([1]; first compound 3.162 µM)	relative viability ([1]; first compound 10 µM)	relative viability ([1]; first compound 31.62 µM)	relative viability ([1]; first compound 100 µM)	relative viability (Axitinib + Navitoclax; first compound 0.005 µM)	relative viability (Axitinib + Navitoclax; first compound 0.01581 µM)	relative viability (Axitinib + Navitoclax; first compound 0.05 µM)	relative viability (Axitinib + Navitoclax; first compound 0.1581 µM)	relative viability (Axitinib + Navitoclax; first compound 0.5 µM)	relative viability ([2]; first compound 1 µM)	relative viability ([2]; first compound 3.162 µM)	relative viability ([2]; first compound 10 µM)	relative viability ([2]; first compound 31.62 µM)	relative viability ([2]; first compound 100 µM)	relative viability (Axitinib + AZD7762; first compound 0.005 µM)	relative viability (Axitinib + AZD7762; first compound 0.01581 µM)	relative viability (Axitinib + AZD7762; first compound 0.05 µM)	relative viability (Axitinib + AZD7762; first compound 0.1581 µM)	relative viability (Axitinib + AZD7762; first compound 0.5 µM)
NCI-H1437	1.06	0.903	0.905	0.65	0.41	1.14	1.07	1.13	1.11	1.09	0.626	0.605	0.563	0.586	0.364	1.14	1.13	1.07	1.08	1.03
NCI-H460	0.613	0.541	0.397	0.274	0.48	1.12	0.964	1.17	0.984	1.18	0.531	0.496	0.392	0.218	0.215	0.693	0.576	0.757	0.636	1.02
NCI-H1703	–	–	–	–	–	0.868	0.36	0.306	0.212	0.305	–	–	–	–	–	0.135	0.11	0.118	0.121	0.125
NCI-H1648	0.226	0.277	0.234	0.235	0.252	–	–	–	–	–	0.478	0.597	0.464	0.406	0.496	0.725	0.57	0.666	0.733	0.682
SK-LU-1	0.353	0.353	0.354	–	0.3	0.955	1.2	0.932	0.812	1.13	0.646	0.763	0.622	0.535	0.698	–	–	–	–	–
NCI-H358	0.761	0.797	0.658	0.629	0.528	–	–	–	–	–	0.206	0.205	0.19	0.217	0.16	0.529	0.509	0.626	0.512	0.635
Calu-6	–	–	–	–	–	0.923	0.87	0.751	0.885	0.929	–	–	–	–	–	–	–	–	–	–
EBC-1	–	–	–	–	–	0.468	0.443	0.453	0.509	0.554	–	–	–	–	–	–	–	–	–	–
CAL-12T	0.455	0.592	0.457	–	0.444	1.29	1.47	1.15	1.19	1.45	–	–	–	–	–	0.623	0.576	0.615	0.564	0.561
NCI-H1650	–	0.532	0.43	0.494	0.411	1.27	0.981	1.35	1.24	1.41	0.382	0.442	0.593	0.32	0.406	–	–	–	–	–
NCI-H2228	0.589	0.574	0.526	0.392	0.283	0.698	0.893	0.847	0.99	1.19	–	–	–	–	–	–	–	–	–	–
NCI-H2023	0.305	0.3	0.204	–	0.213	1.05	1.01	0.874	0.94	1.01	0.237	0.211	0.23	0.201	0.242	–	–	–	–	–
IA-LM	–	–	–	–	–	0.88	0.79	0.944	0.823	0.829	–	–	–	–	–	–	–	–	–	–
NCI-H2342	0.517	0.667	0.551	0.604	0.573	–	–	–	–	–	0.685	0.779	0.744	0.64	0.678	0.554	0.437	0.688	0.513	0.429
COR-L 105	0.6	0.667	0.591	0.64	0.495	1	0.828	0.795	0.65	1.07	0.652	0.622	0.62	0.646	0.581	–	–	–	–	–
UMC-11	0.537	0.518	0.56	0.485	0.456	0.322	0.305	0.282	0.347	0.294	0.551	0.601	0.597	0.525	0.595	–	–	–	–	–
ABC-1	0.358	0.526	0.35	0.299	0.326	–	–	–	–	–	–	1.02	1.03	1	0.803	–	0.725	0.896	0.822	0.461
SK-MES-1	0.575	0.59	0.527	0.396	0.511	1.32	1.2	1.32	1.25	1.51	0.351	0.424	0.353	0.411	0.352	–	–	–	–	–
NCI-H520	0.297	0.244	0.259	0.288	0.25	0.987	1.26	1.1	0.794	1.11	0.595	0.481	0.578	0.397	0.507	–	–	–	–	–
SW 900	0.399	0.648	0.502	0.342	0.357	–	–	–	–	–	0.395	0.381	0.423	0.389	0.447	0.52	–	0.562	0.579	0.66
NCI-H661	0.691	0.707	0.678	0.514	0.579	–	–	–	–	–	0.536	0.591	0.587	0.542	0.469	–	–	–	–	–
NCI-H1623	0.401	0.5	0.38	0.331	0.324	–	–	–	–	–	–	–	–	–	–	–	–	–	–	–
LCLC-103H	0.521	0.504	0.437	0.411	0.531	–	–	–	–	–	0.659	0.7	0.708	0.636	0.65	0.843	0.752	0.816	0.836	0.674
A549	–	–	–	–	–	1.19	1.24	1.25	1.13	1.18	–	0.249	0.215	0.207	0.327	–	–	–	–	–
